# Laboratory results as given in the supplement of paper PMC10307832.
# Columns and labels:
# Assay in all cases: relative viability (nuclei count vs DMSO), 5 days (fraction); higher = more cells survive
# XMD14-99 + Crizotinib = compound: CN1CCN(CC1)C2=CC(=C(C=C2)NC3=NC(=C(S3)C(=O)C4=C(C=CC=C4Cl)Cl)N)OC [XMD14-99] + C[C@@H](Oc1cc(-c2cnn(C3CCNCC3)c2)cnc1N)c1c(Cl)ccc(F)c1Cl [Crizotinib] (partner 1 µM)
# In short: (§1)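 Lung cancer cell lines, seeded in 1536-well plates, were treated the following day by pin tool with a single drug or with five library-drug doses (not always all listed) in √10 steps on top of a fixed anchor-drug dose. Cells were fixed and nuclei stained in one step after 5 days, and nuclei were counted. Relative viability is the nuclei count for treated wells divided by that for vehicle wells, reported as medians of duplicate plates.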
# AZD1208 + OSI-027 = compound: N[C@@H]1CCCN(c2c(/C=C3\SC(=O)NC3=O)cccc2-c2ccccc2)C1 [AZD1208] + COc1cccc2cc(-c3nc([C@H]4CC[C@H](C(=O)O)CC4)n4ncnc(N)c34)[nH]c12 [OSI-027] (partner 0.5 µM)
# In short: as §1
# XMD14-99 + Decitabine = compound: CN1CCN(CC1)C2=CC(=C(C=C2)NC3=NC(=C(S3)C(=O)C4=C(C=CC=C4Cl)Cl)N)OC [XMD14-99] + Nc1ncn([C@H]2C[C@H](O)[C@@H](CO)O2)c(=O)n1 [Decitabine] (partner 2 µM)
# In short: as §1
# XMD14-99 + OSI-027 = compound: CN1CCN(CC1)C2=CC(=C(C=C2)NC3=NC(=C(S3)C(=O)C4=C(C=CC=C4Cl)Cl)N)OC [XMD14-99] + COc1cccc2cc(-c3nc([C@H]4CC[C@H](C(=O)O)CC4)n4ncnc(N)c34)[nH]c12 [OSI-027] (partner 0.5 µM)
# In short: as §1
Cell Line,relative viability (XMD14-99 + Crizotinib; first compound 0.08 µM),relative viability (XMD14-99 + Crizotinib; first compound 0.8 µM),relative viability (XMD14-99 + Crizotinib; first compound 2.53 µM),relative viability (XMD14-99 + Crizotinib; first compound 8 µM),relative viability (AZD1208 + OSI-027; first compound 0.08 µM),relative viability (AZD1208 + OSI-027; first compound 0.253 µM),relative viability (AZD1208 + OSI-027; first compound 0.8 µM),relative viability (AZD1208 + OSI-027; first compound 2.53 µM),relative viability (AZD1208 + OSI-027; first compound 8 µM),relative viability (XMD14-99 + Decitabine; first compound 0.08 µM),relative viability (XMD14-99 + Decitabine; first compound 0.8 µM),relative viability (XMD14-99 + Decitabine; first compound 2.53 µM),relative viability (XMD14-99 + Decitabine; first compound 8 µM),relative viability (XMD14-99 + OSI-027; first compound 0.08 µM),relative viability (XMD14-99 + OSI-027; first compound 0.8 µM),relative viability (XMD14-99 + OSI-027; first compound 2.53 µM),relative viability (XMD14-99 + OSI-027; first compound 8 µM)
NCI-H1755,0.846,0.878,0.825,0.614,0.69,0.617,0.582,0.59,0.437,0.761,0.68,0.698,0.709,0.709,0.712,0.668,0.517
HCC-78,0.325,0.319,0.351,0.255,0.41,0.395,0.375,0.374,0.332,0.709,0.646,0.822,0.47,0.389,0.339,0.377,0.319
IA-LM,0.742,0.561,0.435,0.331,,,,,,,,,,,,,
NCI-H441,0.596,0.797,0.661,0.494,0.518,0.535,0.396,0.493,0.352,0.279,0.242,0.308,0.234,0.61,0.568,0.665,0.427
NCI-H322M,0.927,0.972,0.905,0.848,0.569,0.514,0.459,0.508,0.462,0.684,0.667,0.706,0.645,0.56,0.581,0.492,0.372
NCI-H1993,0.952,0.847,0.792,0.68,0.599,0.447,0.616,0.491,0.536,0.561,0.603,0.587,0.622,0.575,0.555,0.53,0.53
COR-L23,0.684,0.614,0.51,0.33,0.762,0.779,0.642,0.728,0.452,0.467,0.428,0.41,0.382,0.796,0.724,0.561,0.406
NCI-H2126,1.01,1.02,0.979,0.937,0.74,0.704,0.68,0.613,0.674,0.629,0.537,0.611,0.503,0.666,0.66,0.669,0.432
LC-2-ad,0.424,0.461,0.478,0.414,0.788,0.776,0.624,0.707,0.651,0.776,0.727,0.777,0.745,0.845,0.866,0.771,0.679
NCI-H1793,,,,,0.244,0.254,0.268,0.31,0.25,0.502,0.521,0.473,0.427,0.269,0.26,0.232,0.199
NCI-H2228,0.37,0.447,0.48,0.301,0.5,0.586,0.406,0.308,0.304,,,,,0.687,0.583,0.505,0.199
NCI-H522,,,,,0.771,0.575,0.618,0.691,0.701,0.703,0.648,0.554,0.672,0.742,0.742,0.683,0.72
NCI-H1299,0.946,0.898,0.998,0.769,,,,,,,,,,,,,
NCI-H1648,,,,,0.246,0.244,0.268,0.244,0.274,0.47,0.501,0.479,0.455,0.268,0.25,0.231,0.227
NCI-H2342,,,,,0.575,0.664,0.488,0.627,0.574,0.724,0.739,0.765,0.638,0.594,0.674,0.752,0.548
SW 900,,,,,0.678,0.578,0.398,0.439,0.438,0.413,0.443,0.386,0.419,0.532,0.727,0.548,0.366
NCI-H1395,,,,,0.624,0.569,0.578,0.624,0.491,0.696,0.7,0.712,0.653,0.687,0.639,0.654,0.584
A549,0.593,0.728,0.705,0.452,,,,,,0.284,0.271,0.203,0.229,,,,
NCI-H1563,0.858,0.905,0.896,0.786,0.721,0.708,0.704,0.695,0.596,,,,,0.753,0.766,0.733,0.641
